# Results: patent US11261201B2 (priority 2018, dated 2022)
# Where a name gives a salt, the structure may show the parent alone. Read-outs that look alike come from different tables or passages of the source.
# Tests used:
# E. coli = experiment: Gram negative MIC protocol (OD600, LB, 24 h); settings: Escherichia coli
# Method: (§1) Overnight bacterial cultures were grown in LB with no added antibiotics at 37° C. with shaking. A 1:1000 dilution of these cultures into LB was exposed to concentration gradients of compounds in 96-well plates (100 μL per well assay volume). Resulting plates were incubated at 37° C. for 24 h without shaking, and OD600 was measured at the end of the incubation. MICs were determined as the lowest concentrations at which OD600 remained at baseline.
# H37RvMA = experiment: Tuberculosis Alamar Blue/Resazurin assay (MIC); type: cell-based; settings: Mycobacterium tuberculosis, H37RV, read-out: WT H37Rv MTB Activity
# A. baumannii = experiment: Gram negative MIC protocol (OD600, LB, 24 h); settings: Acinetobacter baumannii
# Method: as §1
# [1] = read-out: MIC E. coli delta-TolC LB Media, E. coli delta-TolC strain, LB media, 24 h, OD600
# [2] = read-out: MIC WT E. coli LB Media, wild-type E. coli, LB media, 24 h, OD600
# [3] = read-out: MIC A. baumannii LB Media, A. baumannii, LB media, 24 h, OD600
Structure (SMILES),MIC (E. coli; [1]) [µM],MIC (E. coli; [2]) [µM],MIC (H37RvMA; WT H37Rv MTB) [µM],MIC (A. baumannii; [3]) [µM],MIC (H37RvMA) [µM],MIC (A. baumannii; read-out: MIC A. baumannii LB Media) [µM]
"CCc1ccccc1CNCCC1CCCCC1 [B228, 2-cyclohexyl-N-(2-ethylbenzyl)ethanamine hydrochloride]",20,170,91,300,–,–
"c1ccc(-c2ccccc2CNCCC2CCCCC2)cc1 [B229, N-(biphenyl-2-ylmethyl)-2-cyclohexylethanamine hydrochloride]",7,170,33,96,–,–
"c1csc(-c2ccccc2CNCCC2CCCCC2)c1 [B230, 2-cyclohexyl-N-(2-(thiophen-2-yl)benzyl)ethanamine hydrochloride]",4,96,55,96,–,–
"c1cncc(-c2ccccc2CNCCC2CCCCC2)c1 [B231, 2-cyclohexyl-N-(2-(pyridin-3-yl)benzyl)ethanamine hydrochloride]",54,300,> 150,> 300,–,–
"c1ccc(Oc2ccccc2CNCCC2CCCCC2)cc1 [B232, 2-cyclohexyl-N-(2-phenoxybenzyl)ethanamine hydrochloride]",17,170,91,96,–,–
"c1ccc(C2CC2)c(CNCCC2CCCCC2)c1 [B233, 2-cyclohexyl-N-(2-cyclopropylbenzyl)ethanamine hydrochloride]",10,300,91,170,–,–
"c1ccc(-c2ccc3ccccc3c2)c(CNCCC2CCCCC2)c1 [B234, 2-cyclohexyl-N-(2-(naphthalen-2-yl)benzyl)ethanamine hydrochloride]",10,> 300,55,31,–,–
"Nc1ccccc1CNCCC1CCCCC1 [B235, 2-((2-cyclohexylethylamino)methyl)aniline hydrochloride]",96,96,> 150,> 300,–,–
"c1coc(-c2ccccc2CNCCC2CCCCC2)c1 [B236, 2-cyclohexyl-N-(2-(furan-2-yl)benzyl)ethanamine hydrochloride]",17,54,150,300,–,–
"CN(C)c1ccccc1CNCCC1CCCCC1 [B237, 2-((2-cyclohexylethylamino)methyl)-N,N-dimethylaniline hydrochloride]",170,> 300,> 150,> 300,–,–
"c1ccc(-c2cccc3ccccc23)c(CNCCC2CCCCC2)c1 [B238, 2-cyclohexyl-N-(2-(naphthalen-1-yl)benzyl)ethanamine hydrochloride]",10,> 300,55,54,–,–
CCNC(=O)COc1ccccc1CNC(C)CC1CCCCC1 (centres unmarked) [B239],20,> 150,> 150,> 150,–,–
CC(CC1CCCCC1)NCc1ccccc1OCc1nccs1 (centres unmarked) [B240],7,> 150,150,> 150,–,–
Cc1cc(COc2ccccc2CNC(C)CC2CCCCC2)on1 (centres unmarked) [B241],4,150,> 150,> 150,–,–
CCCNC(=O)COc1ccccc1CNC(C)CC1CCCCC1 (centres unmarked) [B242],12,> 150,> 150,> 150,–,–
CNC(=O)COc1ccccc1CNC(C)CC1CCCCC1 (centres unmarked) [B243],12,> 150,> 150,> 150,–,–
CC(CC1CCCCC1)NCc1ccccc1OCc1cn2ccccc2n1 (centres unmarked) [B244],3,91,150,150,–,–
Cc1nonc1COc1ccccc1CNC(C)CC1CCCCC1 (centres unmarked) [B245],4,150,150,150,–,–
Cc1nc(COc2ccccc2CNC(C)CC2CCCCC2)oc1C (centres unmarked) [B246],12,> 150,91,> 150,–,–

Structure (SMILES),MIC (E. coli; [1]) [µM],MIC (E. coli; [2]) [µM],MIC (H37RvMA; WT H37Rv MTB) [µM],MIC (A. baumannii; [3]) [µM],MIC (H37RvMA) [µM],MIC (A. baumannii; read-out: MIC A. baumannii LB Media) [µM]
CC(CC1CCCCC1)NCc1ccccc1OCCCn1c(=O)[nH]c2ccccc21 (centres unmarked) [B247],2,150,> 150,91,–,–
CC(CC1CCCCC1)NCc1ccccc1OCc1ncnn1C (centres unmarked) [B248],20,> 150,> 150,> 150,–,–
CCN(CC)CCOc1ccccc1CNC(C)CC1CCCCC1 (centres unmarked) [B249],> 150,> 150,> 150,> 150,–,–
CC(CC1CCCCC1)NCc1ccccc1OCCN1CCOCC1 (centres unmarked) [B250],12,> 150,> 150,> 150,–,–
CC(CC1CCCCC1)NCc1ccccc1OCCCO (centres unmarked) [B251],7,91,> 150,91,–,–
COC(=O)c1ccc(COc2ccccc2CNC(C)CC2CCCCC2)o1 (centres unmarked) [B252],4,> 150,150,150,–,–
"COc1ccccc1CNCCC1CCCCC1 [B253, 2-cyclohexyl-N-(2-methoxybenzyl)ethanamine hydrochloride]",37,150,> 150,> 150,–,–
"NCc1ccccc1CNCCC1CCCCC1 [B254, N-(2-(aminomethyl)benzyl)-2-cyclohexylethanamine hydrochloride]",> 150,> 150,> 150,> 150,–,–
OCc1ccccc1CNCCC1CCCCC1 [B255],84,> 150,> 150,> 150,–,–
"CC(=O)Oc1ccccc1CNCCC1CCCCC1 [B256, 2-((2-cyclohexylethylamino)methyl)phenyl acetate]",150,> 150,> 150,> 150,–,–
"O=C(O)c1ccccc1CNCCC1CCCCC1 [B257, 2-((2-cyclohexylethylamino)methyl)benzoic acid hydrochloride]",67,> 150,> 150,> 150,–,–
"COC(=O)c1ccccc1CNCCC1CCCCC1 [B258, methyl 2-((2-cyclohexylethylamino)methyl)benzoate hydrochloride]",100,> 150,> 150,> 150,–,–
"NC(=O)c1ccccc1CNCCC1CCCCC1 [B259, 2-((2-cyclohexylethylamino)methyl)benzamide trifluoroacetate]",125,> 150,–,–,> 150,> 150
CC(CC1CCCCC1)NCc1ccccc1OCCOC1CCCC1 (centres unmarked) [B260],7,> 150,91,> 150,–,–
CC(CC1CCCCC1)NCc1ccccc1OCCOCC1CC1 (centres unmarked) [B261],4,> 150,150,> 150,–,–
CC(CC1CCCCC1)NCc1ccccc1OCCOCC(F)(F)C(F)(F)F (centres unmarked) [B262],12,150,55,91,–,–
CC(CC1CCCCC1)NCc1ccccc1OCC(=O)N(C)C1CCCCC1 (centres unmarked) [B263],3,> 150,91,> 150,–,–
CC(CC1CCCCC1)NCc1ccccc1OCCCN1CCOC1=O (centres unmarked) [B264],3,150,> 150,150,–,–
COC(=O)c1occc1COc1ccccc1CNC(C)CC1CCCCC1 (centres unmarked) [B265],3,150,91,91,–,–
